Results from US9073918B2, “Pyrazolo[4,3-b]pyridine-7-amine inhibitors of ALK5” (Takeda Pharmaceutical Company Limited, priority 2010, dated 2015).

What was measured:
TGF-β R1 ALK5 = target: T1, TGF-β R1 ALK5 (Homo sapiens, UniProt P36897); experiment: In vitro inhibition of ALK5 (LanthaScreen activity assay, TR-FRET); format: biochemical
T1 construct: purchased Invitrogen PV5837
T1 sequence (P36897 34-503): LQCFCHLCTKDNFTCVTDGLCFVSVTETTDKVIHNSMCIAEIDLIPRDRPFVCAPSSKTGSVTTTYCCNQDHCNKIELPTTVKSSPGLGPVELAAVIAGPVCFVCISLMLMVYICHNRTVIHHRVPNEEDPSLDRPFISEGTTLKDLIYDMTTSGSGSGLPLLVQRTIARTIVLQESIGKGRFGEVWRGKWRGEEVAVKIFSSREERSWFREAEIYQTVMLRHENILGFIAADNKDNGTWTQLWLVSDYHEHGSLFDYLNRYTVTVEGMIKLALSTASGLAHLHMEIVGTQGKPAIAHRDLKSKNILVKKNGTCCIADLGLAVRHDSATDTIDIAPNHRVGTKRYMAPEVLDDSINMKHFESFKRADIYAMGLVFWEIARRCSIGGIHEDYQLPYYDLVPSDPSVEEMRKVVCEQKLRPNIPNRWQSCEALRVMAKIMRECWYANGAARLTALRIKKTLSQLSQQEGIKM
Experimental: Test compounds were screened for TGF-β R1 ALK5 inhibition by use of a LanthaScreen™ activity assay (PV5837 Invitrogen, Invitrogen Corp. Madison, Wis.).
In brief, the assay procedure was as follows:
Solutions of test compounds were prepared in DMSO and diluted two-fold serially.
Assays were incubated for 90 minutes at room temperature and then quenched by the addition of 60 mM EDTA and 8 nM Terbium labeled anti-pSMAD3 Antibody (M4337 from Invitrogen) giving a final concentration of 15 mM EDTA and 2 nM Terbium labeled anti-pSMAD3 Antibody. Phosphorylated peptide product was quantified by measuring an increase in TR-FRET on a BMG LABTECH PHERA star plus. Response is defined as the ratio of Channel A/Channel B. The response of a blank (uninhibited) using vehicle alone is also determined. Enzyme activity was defined as the response of uninhibited enzyme activity minus the response of assays containing no enzyme. The percent inhibition of ALK5 at a given compound concentration is defined as: 100%×[1−(response compound/response blank)]
where response compound is defined as the enzyme activity in the presence of test compound and response blank is defined as the uninhibited enzyme activity. The pIC50 value (negative log of the molar concentration of the compound that produces 50% inhibition) of a test compound is calculated by non-linear least squares curve fitting of the equation: Percent Inhibition=100%/(1+(10−pIC50/10 log [I])).
Where inhibition was measured in multiple experiments the value in Table 1 is an average. N.T. means not tested.

cellular TGF-β R1 ALK5 = target: T2, cellular TGF-β R1 ALK5 (Homo sapiens, UniProt P36897); experiment: Cellular inhibition of ALK5 (CellSensor SBE-bla HEK 293T beta-lactamase reporter); format: cell-based; conditions: cellular inhibition of ALK5, SBE-bla HEK 293T cells, TGFb-1 stimulated 5 hours; average where measured in multiple experiments
T2 construct: host or cells: CellSensor SBE-bla HEK 293T
T2 sequence (P36897 34-503): T1 sequence (P36897 34-503)
From the text: Test compounds were screened for cellular TGF-β R1 ALK5 inhibition by use of a CellSensor® SBE-bla HEK 293T (K1550, Invitrogen Corp. Madison, Wis.) cell line. The CellSensor® SBE-bla HEK 293T cell line contains a beta-lactamase reporter gene under control of the SBE response element stably integrated into HEK 293T cells. The SBE response element is a DNA region that binds activated SMADs which results from the binding of TGF-β to, and subsequent activation of ALK5.
The assay procedure was as follows:
CellSensor® SBE-bla HEK 293T cell line were plated at 12,000 cells/well in 40 ul DMEM plus 5 ug/ml blasticidin into 384-well, black-wall, clear-bottom assay plate and incubated overnight.
The following day 5 uL of 10×, 2.5-fold serially diluted test compounds in DMSO were added into cells to a final compound concentration of 1× and DMSO concentration of 0.5%. Assay was incubated for 1 hour at 37° C., 5% CO2, 5 uL of 100 ng/mL TGFb-1 was then added to activate ALK5 and incubated for 5 hours at 37° C., 5% CO2, 10 uL of detector, LiveBLAzer FRET B/G substrate (CCF4-AM, Invitrogen Corp. Madison, Wis.) was added to cells and incubated for 2 hours at RT. Assay was measured using Spectramax, a bottom-read fluorescence plate reader, at excitation setting of 405 nm and emission settings of 460 nm and 530 nm.
Response is defined as the ratio of background corrected 460 nm emission values/background corrected 530 nm emission values. Cellular activity was defined as percent inhibition of uninhibited ALK5 activity (wells treated with DMSO+TGF-β). The percent inhibition of cellular ALK5 at a given compound concentration is defined as: 100%×[1−(response compound+TGF-β/response DMSO+TGF-β)] where response compound+TGF-β is defined as the activity in the presence of test compound and response DMSO+TGF-β is defined as the uninhibited cellular ALK5 activity. The pIC50 value (negative log of the molar concentration of the compound that produces 50% inhibition) of a test compound is calculated by non-linear least squares curve fitting. pIC50 values, the negative of the log of the IC50, are calculated by non-linear curve fitting of the compound concentrations and percent of inhibition to the standard pIC50 equation.
Where inhibition was measured in multiple experiments the value in Table 2 is an average. N.T. means not tested.

Cc1ccc(F)c(-c2cc(Nc3ccnc4cnn(CC5CC5)c34)ccn2)n1 [Example 89, 1-(cyclopropylmethyl)-N-(3′-fluoro-6′-methyl-2,2′-bipyridin-4-yl)-1H-pyrazolo[4,3-b]pyridin-7-amine]
IC50 (TGF-β R1 ALK5): 25.1 nM | IC50 (cellular TGF-β R1 ALK5): 200 nM

Cc1ccc(F)c(-c2cc(Nc3ccnc4cnn(CC(F)F)c34)ccn2)n1 [Example 105, 1-(2,2-difluoroethyl)-N-(3′-fluoro-6′-methyl-2,2′-bipyridin-4-yl)-1H-pyrazolo[4,3-b]pyridin-7-amine]
IC50 (TGF-β R1 ALK5): 20 nM | IC50 (cellular TGF-β R1 ALK5): 39.8 nM

CCCn1cc2nccc(Nc3ccnc(-c4cc(Cl)ccc4F)c3)c2n1 [Example 19, N-(2-(5-chloro-2-fluorophenyl)pyridin-4-yl)-2-propyl-2H-pyrazolo[4,3-b]pyridin-7-amine]
IC50 (TGF-β R1 ALK5): 50.1 nM | IC50 (cellular TGF-β R1 ALK5): 398 nM

Cc1cnc(-c2cc(F)ccc2F)cc1Nc1ccnc2cnn(C(=O)NC(C)C)c12 [Example 110, 7-(2-(2,5-difluorophenyl)-5-methylpyridin-4-ylamino)-N-isopropyl-1H-pyrazolo[4,3-b]pyridine-1-carboxamide]
IC50 (TGF-β R1 ALK5): 5.01 nM | IC50 (cellular TGF-β R1 ALK5): 158 nM

Cc1cnc(-c2cc(F)ccc2F)cc1Nc1ccnc2cn(CC(C)O)nc12 (stereo not drawn) [Example 143, 1-(7-(2-(2,5-difluorophenyl)-5-methylpyridin-4-ylamino)-2H-pyrazolo[4,3-b]pyridin-2-yl)propan-2-ol]
IC50 (TGF-β R1 ALK5): 20 nM | IC50 (cellular TGF-β R1 ALK5): 126 nM

CCn1ncc2nccc(Nc3ccnc(-c4nc(C)ccc4F)c3)c21 [Example 127, 1-ethyl-N-(3′-fluoro-6′-methyl-2,2′-bipyridin-4-yl)-1H-pyrazolo[4,3-b]pyridin-7-amine]
IC50 (TGF-β R1 ALK5): 7.94 nM | IC50 (cellular TGF-β R1 ALK5): 31.6 nM

Cc1ccc(F)c(-c2cc(Nc3ccnc4cn(C[C@H](C)O)nc34)ccn2)n1 [Example 107, (S)-1-(7-(3′-fluoro-6′-methyl-2,2′-bipyridin-4-ylamino)-2H-pyrazolo[4,3-b]pyridin-2-yl)propan-2-ol]
IC50 (TGF-β R1 ALK5): 6.31 nM | IC50 (cellular TGF-β R1 ALK5): 39.8 nM

Cn1cc2nccc(Nc3ccnc(-c4cccc(Cl)c4)c3)c2n1 [Example 48, N-(2-(3-chlorophenyl)pyridin-4-yl)-2-methyl-2H-pyrazolo[4,3-b]pyridin-7-amine]
IC50 (TGF-β R1 ALK5): 200 nM | IC50 (cellular TGF-β R1 ALK5): 200 nM

CN(C)C(=O)n1ncc2nccc(Nc3ccnc(-c4cc(Cl)ccc4F)c3)c21 [Example 39, 7-(2-(5-chloro-2-fluorophenyl)pyridin-4-ylamino)-N,N-dimethyl-1H-pyrazolo[4,3-b]pyridine-1-carboxamide]
IC50 (TGF-β R1 ALK5): 100 nM | IC50 (cellular TGF-β R1 ALK5): 316 nM

Cc1ccc(F)c(-c2cc(Nc3ccnc4cnn(CCO)c34)ccn2)n1 [Example 71, 2-(7-(3′-fluoro-6′-methyl-2,2′-bipyridin-4-ylamino)-1H-pyrazolo[4,3-b]pyridin-1-yl)ethanol]
IC50 (TGF-β R1 ALK5): 50.1 nM | IC50 (cellular TGF-β R1 ALK5): 63.1 nM

CNC(=O)n1ncc2nccc(Nc3cc(-c4cc(Cl)ccc4F)ncc3C)c21 [Example 52, 7-(2-(5-chloro-2-fluorophenyl)-5-methylpyridin-4-ylamino)-N-methyl-1H-pyrazolo[4,3-b]pyridine-1-carboxamide]
IC50 (TGF-β R1 ALK5): 31.6 nM | IC50 (cellular TGF-β R1 ALK5): 31.6 nM

CCNC(=O)n1ncc2nccc(Nc3cc(-c4cc(Cl)ccc4F)ncc3C)c21 [Example 53, 7-(2-(5-chloro-2-fluorophenyl)-5-methylpyridin-4-ylamino)-N-ethyl-1H-pyrazolo[4,3-b]pyridine-1-carboxamide]
IC50 (TGF-β R1 ALK5): 31.6 nM | IC50 (cellular TGF-β R1 ALK5): 50.1 nM

Cc1cnc(-c2cc(F)ccc2F)cc1Nc1ccnc2cn(CCC(C)(C)O)nc12 [Example 142, 4-(7-(2-(2,5-difluorophenyl)-5-methylpyridin-4-ylamino)-2H-pyrazolo[4,3-b]pyridin-2-yl)-2-methylbutan-2-ol]
IC50 (TGF-β R1 ALK5): 25.1 nM | IC50 (cellular TGF-β R1 ALK5): 158 nM

Cc1ccc(F)c(-c2cc(Nc3ccnc4cn(C[C@@H](C)O)nc34)c(C)cn2)n1 [Example 150, (R)-1-(7-(3′-fluoro-5,6′-dimethyl-2,2′-bipyridin-4-ylamino)-2H-pyrazolo[4,3-b]pyridin-2-yl)propan-2-ol]
IC50 (TGF-β R1 ALK5): 7.94 nM | IC50 (cellular TGF-β R1 ALK5): 158 nM

CCn1ncc2nccc(Nc3cc(-c4nc(C)ccc4F)ncc3C)c21 [Example 134, 1-ethyl-N-(3′-fluoro-5,6′-dimethyl-2,2′-bipyridin-4-yl)-1H-pyrazolo[4,3-b]pyridin-7-amine]
IC50 (TGF-β R1 ALK5): 2 nM | IC50 (cellular TGF-β R1 ALK5): 50.1 nM

CNC(=O)Cn1cc2nccc(Nc3ccnc(-c4nc(C)ccc4F)c3)c2n1 [Example 111, 2-(7-(3′-fluoro-6′-methyl-2,2′-bipyridin-4-ylamino)-2H-pyrazolo[4,3-b]pyridin-2-yl)-N-methylacetamide]
IC50 (TGF-β R1 ALK5): 501 nM | IC50 (cellular TGF-β R1 ALK5): 12600 nM

CNC(=O)Cn1cc2nccc(Nc3cc(-c4nc(C)ccc4F)ncc3C)c2n1 [Example 146, 2-(7-(3′-fluoro-5,6′-dimethyl-2,2′-bipyridin-4-ylamino)-2H-pyrazolo[4,3-b]pyridin-2-yl)-N-methylacetamide]
IC50 (TGF-β R1 ALK5): 31.6 nM | IC50 (cellular TGF-β R1 ALK5): 501 nM

Fc1ccc(Cl)cc1-c1cc(Nc2ccnc3cnn(CC4CC4)c23)ccn1 [Example 36, N-(2-(5-chloro-2-fluorophenyl)pyridin-4-yl)-1-(cyclopropylmethyl)-1H-pyrazolo[4,3-b]pyridin-7-amine]
IC50 (TGF-β R1 ALK5): 631 nM | IC50 (cellular TGF-β R1 ALK5): 631 nM

Fc1ccc(Cl)cc1-c1cc(Nc2ccnc3cn(CC4CCNCC4)nc23)ccn1 [Example 27, N-(2-(5-chloro-2-fluorophenyl)pyridin-4-yl)-2-(piperidin-4-ylmethyl)-2H-pyrazolo[4,3-b]pyridin-7-amine]
IC50 (TGF-β R1 ALK5): 63.1 nM | IC50 (cellular TGF-β R1 ALK5): 1000 nM

Cc1ccc(F)c(-c2cc(Nc3ccnc4cn(C)nc34)ccn2)n1 [Example 66, N-(3′-fluoro-6′-methyl-2,2′-bipyridin-4-yl)-2-methyl-2H-pyrazolo[4,3-b]pyridin-7-amine]
IC50 (TGF-β R1 ALK5): 39.8 nM | IC50 (cellular TGF-β R1 ALK5): 39.8 nM

OC[C@@H](O)Cn1cc2nccc(Nc3ccnc(-c4cc(Cl)ccc4F)c3)c2n1 [Example 47, (S)-3-(7-(2-(5-chloro-2-fluorophenyl)pyridin-4-ylamino)-2H-pyrazolo[4,3-b]pyridin-2-yl)propane-1,2-diol]
IC50 (cellular TGF-β R1 ALK5): 398 nM

Cc1ccc(F)c(-c2cc(Nc3ccnc4cn(CC(N)=O)nc34)c(C)cn2)n1 [Example 14, 2-(7-(3′-fluoro-5,6′-dimethyl-2,2′-bipyridin-4-ylamino)-2H-pyrazolo[4,3-b]pyridin-2-yl)acetamide]
IC50 (TGF-β R1 ALK5): 10 nM
